# pIC50: −log10 of the molar value. Counter-ions that a name gives are not always drawn.
# Target: T1, human NCX1 (Homo sapiens, UniProt P32418)
# T1 construct: expressed in transfected cells
# Assay: NCX1 inhibition, reverse mode (Ca2+ influx into cells), FLIPR Fluo-4 assay
# Type: cell-based
# Conditions: inhibition of NCX1 in reverse mode (Ca2+ influx into cells); read-out: NCX1rv IC50
# Source text: The sodium/calcium exchanger NCX1 can transport calcium ions and sodium ions through the cell membrane. The transport is an exchange of Ca^2+ and Na^+ in two directions depending on membrane potential and ion gradients. At the first direction, named “forward mode” or “calcium export mode”, Ca^2+ is transported out of the cell and Na^+ is transported into the cell. At the other direction, named “reverse mode” or “calcium import mode”, the transport directions are vice versa. The effect of the compounds of the invention on NCX1 was determined in CHO cells stably expressing human NCX1 (gene symbol SLC8A1; cf. WO 2009/115238). The assay is based on the monitoring of intracellular Ca^2+ concentrations using a calcium-sensitive fluorescence dye which is detected by means of a FLIPR device (Fluorimetric Imaging Plate Reader, Molecular Devices).
# The assay is based on the monitoring of intracellular Ca^2+ concentrations using the calcium-sensitive dye Fluo-4. CHO cells expressing NCX1 were loaded with the dye by means of the acetoxymethyl ester Fluo-4 AM (Invitrogen, F14202), which is cleaved intracellularly by esterase activity to yield the charged species of free Fluo-4. After an preincubation period with the test compound, Gramicidine (Sigma, G5002) was added. Gramicidine is an ionophor for Na^+ ions mediating an increase of intracellular Na^+ ions. Consequently, intracellular Na^+ ions are exchanged against extracellular Ca^2+ ions (Ca^2+ influx, reverse mode). The intracellular elevation of Ca^2+ ions was detected by measuring the fluorescence of Fluo-4 at a wavelength of 520 nm by a FLIPR device.
# Briefly, for the reverse mode transport assay 18000 cells per well were seeded into a 96 well microplate (Corning COSTAR 3904) and incubated overnight in culture medium (1× Nut Mix F12 (Ham) (Gibco, 21765-029); 10% (v/v) fetal calf serum (PAA Gold, A15-649); 450 μg/ml Geneticin (Gibco, 10131-027)). A total volume of 100 μl medium per well was used. For the preparation of the FLIPR assay, the culture medium was removed from the plates and 100 μl of dye solution (2 μM Fluo-4 AM; 0.02% (v/v) Pluronic F-127 (20%, Invitrogen, P3000MP); 0.1% (v/v) bovine albumin solution (30% (v/v), Sigma, A9205) in assay buffer (133.8 mM NaCl (Sigma, S5886); 4.7 mM KCl (Sigma, P3911); 1.25 mM MgCl2 (Merck, 1.05833.0250); 3.5 mM CaCl2 (Merck, 1.02083.0250); 5 mM glucose (Sigma, G7021); 10 mM Hepes (Sigma, H4034); 0.01% (v/v) Pluronic F-127 (5%, Sigma, P2443); 2.5 mM Probenecid (Maybridge, SB00915EB); pH 7.4)) were added into each well. The plates were incubated in the dark at room temperature for 80 min. After the incubation period, the dye solution was removed and the wells were washed with 100 μl of assay buffer. Then 80 μl of a solution of the test compound in assay buffer in different concentrations were added into the wells. The plates were incubated at 16° C. for 45 min. Meanwhile a 60 μM solution of Gramicidine in assay buffer (4° C.) was prepared and stored in the wells of a 96 well microplate (96 well microplate, polypropylene, U-shape (Greiner Bio-One, 650201)) at 4° C. until measurement was started. The fluorescence monitoring was performed at 240 measuring points with measurement intervals of 2 sec. After the fifth measuring point, 40 μl of the Gramicidine solution were added to each well of the assay plates to give a final Gramicidine concentration of 20 μM. For the determination of the IC50 values the minimal fluorescence value was subtracted from the maximal fluorescence value for all measuring points. The calculation of the IC50 values via the percentage inhibitions of Ca^2+ influx into cells (reverse mode) effected by the test compound was performed in Biost@t Speed 2.0.
row,Structure (SMILES),pIC50
1,"O=C(NCc1ccncc1)c1cnc(Oc2ccc3c(c2)CCC(c2ccsc2)O3)s1 (stereo not drawn) [compound 60, hydrochloride]",7.00
2,"O=C(NCCc1ccncc1)c1cnc(Oc2ccc3c(c2)CCC(c2ccccc2)O3)s1 (stereo not drawn) [compound 61, hydrochloride]",6.70
3,Cc1c(CNC(=O)c2cnc(Oc3ccc4c(c3)CC[C@@H](c3ccccc3)O4)s2)cnn1C [compound 62],6.52
4,Cc1c(CNC(=O)c2cnc(Oc3ccc4c(c3)CC[C@H](c3ccccc3)O4)s2)cnn1C [compound 63],6.22
5,Cc1ccc(C(=O)NCc2cnc(Oc3ccc4c(c3)CCC(c3ccccc3)O4)s2)cn1 (stereo not drawn) [compound 64],5.89
6,Cc1noc(C)c1C(=O)NCc1cnc(Oc2ccc3c(c2)CCC(c2ccccc2)O3)s1 (stereo not drawn) [compound 65],6.70
7,Cc1cc(C(=O)NCc2cnc(Oc3ccc4c(c3)CCC(c3ccccc3)O4)s2)n(C)n1 (stereo not drawn) [compound 66],6.22
8,Cc1nn(C)c(C)c1C(=O)NCc1cnc(Oc2ccc3c(c2)CCC(c2ccccc2)O3)s1 (stereo not drawn) [compound 67],6.52
9,O=C(NCc1cnc(Oc2ccc3c(c2)CCC(c2ccccc2)O3)s1)c1ccnc(Cl)c1 (stereo not drawn) [compound 68],6.10
10,Cc1ncoc1C(=O)NCc1cnc(Oc2ccc3c(c2)CCC(c2ccccc2)O3)s1 (stereo not drawn) [compound 69],6.30
11,CCn1nccc1C(=O)NCc1cnc(Oc2ccc3c(c2)CCC(c2ccccc2)O3)s1 (stereo not drawn) [compound 70],6.52
12,Cc1c(C(=O)NCc2cnc(Oc3ccc4c(c3)CCC(c3ccccc3)O4)s2)cnn1C (stereo not drawn) [compound 71],6.15
13,CCn1cc(C(=O)NCc2cnc(Oc3ccc4c(c3)CCC(c3ccccc3)O4)s2)cn1 (stereo not drawn) [compound 72],6.52
14,Cc1nc(C(=O)NCc2cnc(Oc3ccc4c(c3)CCC(c3ccccc3)O4)s2)cs1 (stereo not drawn) [compound 73],6.52
15,Cc1ccn(CC(=O)NCc2cnc(Oc3ccc4c(c3)CCC(c3ccccc3)O4)s2)n1 (stereo not drawn) [compound 74],6.52
16,O=C(NCc1cnc(Oc2ccc3c(c2)CCC(c2ccccc2)O3)s1)c1ccnc(N2CCCCC2)c1 (stereo not drawn) [compound 75],5.01
17,COc1cc(C(=O)NCc2cnc(Oc3ccc4c(c3)CCC(c3ccccc3)O4)s2)ccn1 (stereo not drawn) [compound 76],5.25
18,Cc1noc(C)c1CC(=O)NCc1cnc(Oc2ccc3c(c2)CCC(c2ccccc2)O3)s1 (stereo not drawn) [compound 77],6.40
19,Cc1nc(C)c(C(=O)NCc2cnc(Oc3ccc4c(c3)CCC(c3ccccc3)O4)s2)o1 (stereo not drawn) [compound 78],6.52
20,O=C(NCc1cnc(Oc2ccc3c(c2)CCC(c2ccccc2)O3)s1)c1ccncc1 (stereo not drawn) [compound 79],6.70

row,Structure (SMILES),pIC50
1,O=C(NCc1cnc(Oc2ccc3c(c2)CCC(c2ccccc2)O3)s1)c1ccncc1Cl (stereo not drawn) [compound 80],6.70
2,O=C(NCc1cnc(Oc2ccc3c(c2)CCC(c2ccccc2)O3)s1)c1ccncc1F (stereo not drawn) [compound 81],5.96
3,Cc1cc(C(=O)NCc2cnc(Oc3ccc4c(c3)CCC(c3ccccc3)O4)s2)ccn1 (stereo not drawn) [compound 82],6.40
4,O=C(NCc1cnc(Oc2ccc3c(c2)CCC(c2ccccc2)O3)s1)c1ccnc(N2CCOCC2)c1 (stereo not drawn) [compound 83],5.68
5,Cc1cc(C(=O)NCc2cnc(Oc3ccc4c(c3)CCC(c3ccccc3)O4)s2)on1 (stereo not drawn) [compound 84],6.52
6,Nc1cc(C(=O)NCc2cnc(Oc3ccc4c(c3)CCC(c3ccccc3)O4)s2)ccn1 (stereo not drawn) [compound 85],4.96
7,Cn1nccc1C(=O)NCc1cnc(Oc2ccc3c(c2)CCC(c2ccccc2)O3)s1 (stereo not drawn) [compound 86],6.52
8,O=C(NCc1cnc(Oc2ccc3c(c2)CCC(c2ccccc2)O3)s1)c1ncccn1 (stereo not drawn) [compound 87],6.40
9,O=C(NCc1cnc(Oc2ccc3c(c2)CCC(c2ccccc2)O3)s1)c1ccnc(O)c1 (stereo not drawn) [compound 88],5.30
10,O=C(NCc1cnc(Oc2ccc3c(c2)CCC(c2ccccc2)O3)s1)c1ccncn1 (stereo not drawn) [compound 89],6.70
11,O=C(CCn1cccn1)NCc1cnc(Oc2ccc3c(c2)CCC(c2ccccc2)O3)s1 (stereo not drawn) [compound 90],6.22
12,Cc1cc(C(=O)NCc2cnc(Oc3ccc4c(c3)CCC(c3ccccc3)O4)s2)nc(C)n1 (stereo not drawn) [compound 91],5.28
13,O=C(Cn1cccn1)NCc1cnc(Oc2ccc3c(c2)CCC(c2ccccc2)O3)s1 (stereo not drawn) [compound 92],5.96
14,CCn1ccc(C(=O)NCc2cnc(Oc3ccc4c(c3)CCC(c3ccccc3)O4)s2)n1 (stereo not drawn) [compound 93],6.30
15,Cc1noc(C)c1CCC(=O)NCc1cnc(Oc2ccc3c(c2)CCC(c2ccccc2)O3)s1 (stereo not drawn) [compound 94],6.05
16,O=C(CN1C(=O)CNC1=O)NCc1cnc(Oc2ccc3c(c2)CCC(c2ccccc2)O3)s1 (stereo not drawn) [compound 95],6.22
17,CC(C)Oc1cccc(C2CCc3cc(Oc4ncc(C(=O)NCc5ccncc5)s4)ccc3O2)c1 (stereo not drawn) [compound 96],6.10
18,Cc1noc(C)c1CCNC(=O)c1cnc(Oc2ccc3c(c2)CCC(c2cccc(OC(C)C)c2)O3)s1 (stereo not drawn) [compound 97],5.92
19,"Cc1nc(Oc2ccc3c(c2)CC[C@@H](c2ccccc2)O3)sc1C(=O)NCc1ccncc1 [compound 98, hydrochloride]",6.52
20,CCCCN(C)Cc1cnc(Oc2ccc3c(c2)CCC(c2ccccc2)O3)s1 (stereo not drawn) [compound 99],6.15

row,Structure (SMILES),pIC50
1,C[C@@H]1CN(Cc2cnc(Oc3ccc4c(c3)CCC(c3ccccc3)O4)s2)C[C@H](C)O1 (stereo partly drawn) [compound 100],6.00
2,CC(C)CNCc1cnc(Oc2ccc3c(c2)CCC(c2ccccc2)O3)s1 (stereo not drawn) [compound 101],6.40
3,CN1CCN(Cc2cnc(Oc3ccc4c(c3)CCC(c3ccccc3)O4)s2)CC1=O (stereo not drawn) [compound 102],6.40
4,c1ccc(C2CCc3cc(Oc4ncc(CN5CCCC5)s4)ccc3O2)cc1 (stereo not drawn) [compound 104],6.40
5,CC(NCc1cnc(Oc2ccc3c(c2)CCC(c2ccccc2)O3)s1)C(C)(C)C (stereo not drawn) [compound 105],6.10
6,CCC(CC)NCc1cnc(Oc2ccc3c(c2)CCC(c2ccccc2)O3)s1 (stereo not drawn) [compound 106],6.30
7,FC(F)(F)CNCc1cnc(Oc2ccc3c(c2)CCC(c2ccccc2)O3)s1 (stereo not drawn) [compound 107],6.70
8,c1ccc(C2CCc3cc(Oc4ncc(CN5CC6CCC(CC6)C5)s4)ccc3O2)cc1 (stereo not drawn) [compound 108],5.85
9,FC1(F)CCN(Cc2cnc(Oc3ccc4c(c3)CCC(c3ccccc3)O4)s2)CC1 (stereo not drawn) [compound 109],6.15
10,c1ccc(C2CCc3cc(Oc4ncc(CNC5CCC5)s4)ccc3O2)cc1 (stereo not drawn) [compound 110],6.70
11,Cc1cc(NCc2cnc(Oc3ccc4c(c3)CCC(c3ccccc3)O4)s2)on1 (stereo not drawn) [compound 111],6.10
12,CCC(C)(C)NCc1cnc(Oc2ccc3c(c2)CCC(c2ccccc2)O3)s1 (stereo not drawn) [compound 112],6.52
13,CC(C)NCc1cnc(Oc2ccc3c(c2)CCC(c2ccccc2)O3)s1 (stereo not drawn) [compound 113],6.52
14,COCCNCc1cnc(Oc2ccc3c(c2)CCC(c2ccccc2)O3)s1 (stereo not drawn) [compound 114],6.70
15,CC(C)CCNCc1cnc(Oc2ccc3c(c2)CCC(c2ccccc2)O3)s1 (stereo not drawn) [compound 115],6.22
16,CCCNCc1cnc(Oc2ccc3c(c2)CCC(c2ccccc2)O3)s1 (stereo not drawn) [compound 116],6.70
17,c1ccc(C2CCc3cc(Oc4ncc(CN5CCOCC5)s4)ccc3O2)cc1 (stereo not drawn) [compound 117],6.52
18,CC(C)(C)NCc1cnc(Oc2ccc3c(c2)CCC(c2ccccc2)O3)s1 (stereo not drawn) [compound 118],6.40
19,CN(C)Cc1cnc(Oc2ccc3c(c2)CCC(c2ccccc2)O3)s1 (stereo not drawn) [compound 119],6.40
20,c1ccc(C2CCc3cc(Oc4ncc(CNCC5CC5)s4)ccc3O2)cc1 (stereo not drawn) [compound 120],6.52
